Experimental data from patent USRE39591E1, “6-O-substituted ketolides having antibacterial activity” (Abbott Laboratories, priority 1996, dated 2007).
Values after ≈ are worked out from the molar mass of the structure shown.

Tested on: up to 32 different microorganisms
Assay: in vitro antibacterial activity (MIC), agar dilution on Brain Heart Infusion (BHI) agar with Steers replicator
Format: cell-based
Conditions: unit assumed
Description: Representative compounds of the present invention were assayed in vitro for antibacterial activity as follows: Twelve petri dishes containing successive aqueous dilutions of the test compound mixed with 10 mL of sterilized Brain Heart Infusion (BHI) agar (Difco 0148-01-5) were prepared. Each plate was inoculated with 1:100 (or 1:10 for slow-growing strains, such as Micrococcus and Streptococcus) dilutions of up to 32 different microorganisms, using a Steers replicator block. The inoculated plates were incubated at 35°-37° C. for 20 to 24 hours. In addition, a control plate, using BHI agar containing no test compound, was prepared and incubated at the beginning and end of each test.
An additional plate containing a compound having known susceptibility patterns for the organisms being tested and belonging to the same antibiotic class as the test compound was also prepared and incubated as a further control, as well as to provide test-to-test comparability. Erythromycin A was used for this purpose.
After incubation, each plate was visually inspected. The minimum inhibitory concentration (MIC) was defined as the lowest concentration of drug yielding no growth, a slight haze, or sparsely isolated colonies on the inoculum spot as compared to the growth control.

[1] = Candida albicans CCH 442 (code TT)
[2] = Enterococcus faecism ATCC 8043 (code II)
[3] = Escherichia coli DC-2 (code SS)
[4] = Escherichia coli JUHL (code QQ)
[5] = Micrococcus luteus ATCC 4698 (code PP)
[6] = Micrococcus luteus ATCC 9341 (code OO)
[7] = Mycobacterium smegmatis ATCC 114 (code UU)
[8] = Nocardia Asteroides ATCC9970 (code VV)
[9] = Staphylococcus aureus 1775 (code GG)
[10] = Staphylococcus aureus A5177 (code BB)
[11] = Staphylococcus aureus A-5278 (code CC)
[12] = Staphylococcus aureus ATCC 6538P (code AA)
[13] = Staphylococcus aureus CMX 553 (code FF)
[14] = Staphylococcus aureus CMX 642A (code DD)
[15] = Staphylococcus aureus NCTC10649M (code EE)
[16] = Staphylococcus epidermidis 3519 (code HH)
[17] = Streptococcus agalactiae CMX 508 (code KK)
[18] = Streptococcus bovis A-5169 (code JJ)
[19] = Streptococcus pyogenes 930 (code MM)
[20] = Streptococcus pyogenes EES61 (code LL)
[21] = Streptococcus pyogenes PIU 2548 (code NN)

CCC(=O)OC1C(OC2C(C)C(=O)C(C)C(=O)OC(CC)C3(C)OC(=O)NC3C(C)C(=O)C(C)CC2(C)OCC=Cc2cnc3ccccc3c2)OC(C)CC1N(C)C (stereo not shown) [Example 244, Compound of Formula (III): R^c is propanoyl, L is CO, T is NH, R is —CH2CH═CH(3-quinolyl)]
MIC (organism code AA): 0.1 µg/mL
MIC (organism code BB): 0.2 µg/mL
MIC (organism code CC): > 100 µg/mL
MIC (organism code DD): 0.2 µg/mL
MIC (organism code EE): 0.2 µg/mL
MIC (organism code FF): 0.1 µg/mL
MIC (organism code GG): > 100 µg/mL
MIC (organism code HH): 0.2 µg/mL
MIC (organism code II): 0.05 µg/mL
MIC (organism code JJ): 0.01 µg/mL
MIC (organism code KK): ≤ 0.005 µg/mL
MIC (organism code LL): 0.02 µg/mL
MIC (organism code MM): 1.56 µg/mL
MIC (organism code NN): 0.2 µg/mL
MIC (organism code OO): 0.02 µg/mL
MIC (organism code PP): 0.2 µg/mL
MIC (organism code QQ): 50 µg/mL
MIC (organism code RR): 0.1 µg/mL
MIC (organism code SS): 25 µg/mL
MIC (organism code TT): > 100 µg/mL
MIC (organism code UU): 0.78 µg/mL
MIC (organism code VV): 0.02 µg/mL
MIC (organism code WW): 2 µg/mL
MIC (organism code XX): 0.03 µg/mL
MIC (organism code YY): 0.03 µg/mL
MIC (organism code ZZ): 64 µg/mL
MIC (organism code ZZA): 0.5 µg/mL

CCC1OC(=O)C(C)C(=O)C(C)C(OC2OC(C)CC(N(C)C)C2O)C(C)(OCC=Cc2ccc3c(c2)OCCO3)CC(C)C(=O)C(C)C2NC(=O)OC12C (stereo not shown) [Example 192]
MIC [1]: > 100 µg/mL
MIC [2]: 0.02 µg/mL (≈ 0.0259 µM)
MIC [3]: 100 µg/mL (≈ 129 µM)
MIC [4]: > 100 µg/mL
MIC (Escherichia coli SS (code RR)): 0.2 µg/mL (≈ 0.259 µM)
MIC (Haemophilis influenzae DILL AMP R (code WW)): 4 µg/mL (≈ 5.18 µM)
MIC [5]: 0.2 µg/mL (≈ 0.259 µM)
MIC [6]: 0.01 µg/mL (≈ 0.0129 µM)
MIC [7]: 3.1 µg/mL (≈ 4.01 µM)
MIC [8]: 0.1 µg/mL (≈ 0.129 µM)
MIC [9]: > 100 µg/mL
MIC [10]: 0.1 µg/mL (≈ 0.129 µM)
MIC [11]: > 100 µg/mL
MIC [12]: 0.1 µg/mL (≈ 0.129 µM)
MIC [13]: 0.1 µg/mL (≈ 0.129 µM)
MIC [14]: 0.1 µg/mL (≈ 0.129 µM)
MIC [15]: 0.2 µg/mL (≈ 0.259 µM)
MIC [16]: 0.1 µg/mL (≈ 0.129 µM)
MIC (Streptococcus Pneumonia 5649 (code ZZA)): 0.25 µg/mL (≈ 0.323 µM)
MIC (Streptococcus Pneumonia 5979 (code ZZ)): > 128 µg/mL
MIC (Streptococcus Pneumonia ATCC6303 (code XX)): 0.03 µg/mL (≈ 0.0388 µM)
MIC (Streptococcus Pneumonia GYR 1171 (code YY)): 0.03 µg/mL (≈ 0.0388 µM)
MIC [17]: 0.01 µg/mL (≈ 0.0129 µM)
MIC [18]: 0.01 µg/mL (≈ 0.0129 µM)
MIC [19]: 50 µg/mL (≈ 64.7 µM)
MIC [20]: 0.01 µg/mL (≈ 0.0129 µM)
MIC [21]: 0.1 µg/mL (≈ 0.129 µM)

C=C(C#CCO[C@@]1(C)C[C@@H](C)C(=O)[C@H](C)[C@H]2NC(=O)O[C@]2(C)[C@@H](CC)OC(=O)[C@H](C)C(=O)[C@H](C)[C@H]1O[C@@H]1O[C@H](C)C[C@H](N(C)C)[C@H]1O)c1ccccc1 [Example 257, Compound of Formula (IX): L is CO, T is NH, R is —CH2—C≡C-(1-phenylethenyl)]
MIC (organism code AA): 0.2 µg/mL
MIC (organism code BB): 0.2 µg/mL
MIC (organism code CC): > 100 µg/mL
MIC (organism code DD): 0.2 µg/mL
MIC (organism code EE): 0.2 µg/mL
MIC (organism code FF): 0.2 µg/mL
MIC (organism code GG): > 100 µg/mL
MIC (organism code HH): 0.2 µg/mL
MIC (organism code II): 0.1 µg/mL
MIC (organism code JJ): 0.01 µg/mL
MIC (organism code KK): 0.05 µg/mL
MIC (organism code LL): 0.01 µg/mL
MIC (organism code MM): 100 µg/mL
MIC (organism code NN): 0.2 µg/mL
MIC (organism code OO): 0.05 µg/mL
MIC (organism code PP): 0.2 µg/mL
MIC (organism code QQ): > 100 µg/mL
MIC (organism code RR): 0.78 µg/mL
MIC (organism code SS): > 100 µg/mL
MIC (organism code TT): > 100 µg/mL
MIC (organism code UU): 0.39 µg/mL
MIC (organism code VV): 0.2 µg/mL
MIC (organism code WW): 8 µg/mL
MIC (organism code XX): 0.125 µg/mL
MIC (organism code YY): 0.125 µg/mL
MIC (organism code ZZ): 128 µg/mL
MIC (organism code ZZA): 0.5 µg/mL

CCC1OC(=O)C(C)C(=O)C(C)C(OC2OC(C)CC(N(C)C)C2O)C(C)(OCC=Cc2cccc([N+](=O)[O-])c2)CC(C)C(=O)C(C)C2NC(=O)OC12C (stereo not shown) [Example 193, R is —CH2CH═CH-(3-nitrophenyl)]
MIC [1]: > 100 µg/mL
MIC [2]: 0.02 µg/mL (≈ 0.0263 µM)
MIC [3]: > 100 µg/mL
MIC [4]: 100 µg/mL (≈ 132 µM)
MIC (Escherichia coli SS (code RR)): 0.2 µg/mL (≈ 0.263 µM)
MIC [5]: 0.1 µg/mL (≈ 0.132 µM)
MIC [6]: 0.01 µg/mL (≈ 0.0132 µM)
MIC [7]: 0.39 µg/mL (≈ 0.513 µM)
MIC [8]: 0.05 µg/mL (≈ 0.0658 µM)
MIC [9]: > 100 µg/mL
MIC [10]: 0.1 µg/mL (≈ 0.132 µM)
MIC [11]: > 100 µg/mL
MIC [12]: 0.05 µg/mL (≈ 0.0658 µM)
MIC [13]: 0.1 µg/mL (≈ 0.132 µM)
MIC [14]: 0.1 µg/mL (≈ 0.132 µM)
MIC [15]: 0.1 µg/mL (≈ 0.132 µM)
MIC [16]: 0.1 µg/mL (≈ 0.132 µM)
MIC [17]: 0.01 µg/mL (≈ 0.0132 µM)
MIC [18]: 0.01 µg/mL (≈ 0.0132 µM)
MIC [19]: 25 µg/mL (≈ 32.9 µM)
MIC [20]: ≤ 0.005 µg/mL
MIC [21]: 0.05 µg/mL (≈ 0.0658 µM)
